Peptide text beside a SMILES is read from it. * marks the point of attachment. X3 = C[C@@H]1NC(=O)[C@H](CCC(N)=O)NC(=O)[C@H](CC(=O)O)NC(=O)[C@@H](N)CSCc2cc3cc(c2)CSC[C@@H](C(=O)*)NC(=O)[C@H](CSC3)NC1=O; X1 = C[C@@H]1NC(=O)[C@H](CC(=O)O)NC(=O)[C@@H](N)CSCc2cc3cc(c2)CSC[C@@H](C(=O)*)NC(=O)[C@H](CSC3)NC(=O)[C@H](CO)NC1=O
How the values were obtained:
[1] = circular dichroism; details: PBS; pH 7.4; 25 °C; 5-30 uM
[2] = CD spectroscopy: percent helicity and ellipticity ratio 222/208 nm; assay type: physicochemical; details: for % helicity: 5-30 μM peptide, three scans averaged, [θ]222/[θ]max
Description: Circular dichroism (CD) experiments
Concentrations of the stock solution were determined by […] absorption of Trp or 275 nm absorption of Tyr (and TMB, if present in peptides). Each sample was dissolved in 1x PBS (pH 7.4), 10% TFE/PBS or 20% TFE/PBS with the final concentration between 5 to 30 μM. CD spectra were acquired using circular dichroism spectrometer (Chirascan) equipped with a temperature controller using 1 mm cell at a scan speed of 0.5 nm/sec at indicated temperature. Each sample was scanned three times and the averaged spectrum was smoothed.
Calculation of percent helicity
For simplicity, ‘helicity’ or ‘helical’ in the following text all refers to α-type. For each peptide, mean residue ellipticities ([θ]/(c*n), c = concentration of the peptide, n = number of amino acids in the peptide) were used to calculate % helicity, which is an empirical indicator of peptide helicity. […] (n = number of amino acids in the peptide, T = 25.0 °C).

[3] = In vitro peptide stability in human serum; assay type: in vitro ADME; details: 25% male human serum diluted in RPMI medium, 150 μM peptide, 37 °C, serum pre-equilibrated 15 min, methanol precipitation, RP-HPLC 210 nm peak area relative to 0 h, LC-MS for products
Description: In vitro peptide stability in human serum[50]
Male human serum (H-4522) was obtained from Sigma Aldrich (Missouri, USA). […] The initial time is recorded as peptides were added. The mixture was incubated at 37 °C and an aliquot of 40 μL was removed at different time intervals. […] The supernatant was analyzed in analytical RP-HPLC to calculate the amount of tested peptides, and in LCMS to analyze degradation products. The eluted peptides were detected by absorbance at 210 nm and quantified by their peak areas relative to the initial peak areas (0 h).

[4] = target: T1, cyclin E (Homo sapiens, UniProt P24864); assay: Direct FP assay to measure Kd of fluorescent peptides; assay type: binding; details: FITC-labelled peptide 20 nM final, cyclin E up to 2.4 μM final, PBS, 3 h, n=1 independent experiment in duplicate wells; not saturated, estimate value; read-out: Kd, fluorescence polarization
T1 construct: purchased Sino Biological
T1 sequence (P24864 whole entry): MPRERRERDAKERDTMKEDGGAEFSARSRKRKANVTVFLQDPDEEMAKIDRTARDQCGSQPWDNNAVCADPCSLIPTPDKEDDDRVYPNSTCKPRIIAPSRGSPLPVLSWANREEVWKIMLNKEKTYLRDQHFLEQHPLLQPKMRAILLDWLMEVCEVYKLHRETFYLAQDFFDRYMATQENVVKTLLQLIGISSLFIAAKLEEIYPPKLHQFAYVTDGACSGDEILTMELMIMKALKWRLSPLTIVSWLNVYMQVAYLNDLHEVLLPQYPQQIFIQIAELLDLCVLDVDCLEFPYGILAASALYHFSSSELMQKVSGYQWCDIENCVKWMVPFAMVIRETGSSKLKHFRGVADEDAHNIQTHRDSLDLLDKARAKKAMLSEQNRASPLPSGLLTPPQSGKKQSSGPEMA
Description: Direct FP assay to measure Kd of fluorescent peptides
Polarized fluorescence intensities were measured on Synergy H4 plate reader with excitation and emission wavelengths of 485 and 535 nm with 20 nm band widths, respectively. The optics position is Top 510 nm with Gain set as 100. Read Speed is normal and read height is 7 mm. Cyclin proteins were bought from Sino Biological and after reconstitution it should be used immediately. […] To each well, 10 μL 40 nM of fluorescent peptides in PBS was added. Various concentrations of cyclin E (from Sino Biological, Inc.) were prepared (0.16–4.8 μM) and 10 μL were added to each well. The plate was shaken in the dark for 3 h. Wells containing only the peptide and PBS buffer were used as a control. Each mixture was prepared in duplicates.

[5] = target: T1, cyclin E; assay: Trp fluorescence quenching assay; assay type: binding; details: 0.8 μM cyclin E in PBS pH 7.4, 25 °C, ex 295 nm, em 338 nm; n = 2 independent experiments, ± S.D.
Description: Trp fluorescence quenching assay
Fluorescence quenching of the single tryptophan in cyclin E was measured by using a Cary Eclipse (Varian) equipped with a front-face fluorescence accessory at 25 °C, by using 10-nm excitation and 10 nm emission bandwidths. The excitation wavelength was 295 nm and the emission spectra were measured between 315 and 395 nm. Titrations were performed in a 0.7-ml quartz fluorescence cuvette containing 0.5 mL 0.8 μM protein in PBS buffer, pH 7.4, and by the successive addition of 0.5–1 μL of compound stock solutions. After each addition, the cuvette was shaken to enable fast mixture, and there were 10 mins interval between two additions to ensure equilibrium of the mixture. The measurements were repeated at least three times at each concentration. Fluorescence intensities at 338 nm at increasing concentrations of the quencher were collected. Dissociation equilibrium constant (Kd) values were determined by fitting data to the equation below[42],[43].

[6] = CD in PBS buffer (pH 7.4, 10 mM), 25.0 °C, 1 mm cell

Molecule	helicity [1] [%]	ellipticity ratio 222/208 nm ([2]; CD in 10% TFE/PBS, 25 °C)	% helicity ([2]; CD in 10% TFE/PBS, 25 °C) [%]	% helicity [2, 6] [%]	ellipticity ratio 222/208 nm ([2]; CD in PBS, 25 °C)	half-life at 150 μM [3] [h]	Kd [4] [µM]	half-life [3] [h]	Kd [5] [µM]
CC[C@H](C)[C@H](NC(=O)[C@H](CCC(=O)O)NC(=O)[C@H](C)NC(=O)[C@H](CC(C)C)NC(=O)[C@H](CCC(N)=O)NC(=O)[C@@H]1CSCc2cc3cc(c2)CSC[C@H](N)C(=O)N[C@@H](CC(=O)O)C(=O)N[C@@H](CCC(N)=O)C(=O)N[C@@H](C(C)C)C(=O)N[C@@H](CSC3)C(=O)N1)C(=O)N[C@@H](Cc1ccc(O)cc1)C(N)=O [1B]	17	0.86	43	17	0.48	5.1	–	–	–
CC(C)C[C@H](NC(=O)[C@H](C)NC(=O)[C@H](CCCNC(=N)N)NC(=O)[C@H](CC(C)C)NC(=O)[C@H](CC(C)C)NC(=O)[C@@H]1CSCc2cc3cc(c2)CSC[C@H](N)C(=O)N[C@@H](CC(=O)O)C(=O)N[C@@H](CCC(N)=O)C(=O)N[C@@H](C)C(=O)N[C@@H](CSC3)C(=O)N1)C(=O)N[C@@H](CC(=O)O)C(=O)N[C@@H](CCC(N)=O)C(=O)N[C@@H](Cc1ccc(O)cc1)C(N)=O [2B] (X3-LLRALDQY-NH2; N-terminus and C-terminus assumed)	25	1	42	25	0.91	2.9	–	–	–
CC[C@H](C)[C@H](NC(=O)[C@@H]1CSCc2cc3cc(c2)CSC[C@H](N)C(=O)N[C@@H](CC(=O)O)C(=O)N[C@@H](C)C(=O)N[C@@H](CO)C(=O)N[C@@H](CSC3)C(=O)N1)C(=O)N[C@@H](CCCNC(=N)N)C(=O)N[C@@H](CCC(=O)O)C(=O)N[C@H](C(=O)N[C@@H](CO)C(=O)N[C@@H](CC(C)C)C(=O)N[C@@H](CC(C)C)C(=O)N[C@@H](CCCCN)C(=O)N[C@@H](CCC(=O)O)C(=O)N[C@@H](Cc1ccc(O)cc1)C(N)=O)[C@@H](C)CC [3B] (X1-IREISLLKEY-NH2; N-terminus and C-terminus assumed)	17	0.84	34	17	0.5	3.5	–	–	–
CC[C@H](C)[C@H](NC(=O)[C@@H]1CSCc2cc3cc(c2)CSC[C@H](NC(=O)[C@H](CO)NC(=O)[C@H](C)NC(=O)[C@H](CC(=O)O)NC(=O)[C@@H](NC(=O)CCNC(=O)CCNC(=O)CCNC(=S)Nc2ccc4c(c2)C(=O)OC42c4ccc(O)cc4Oc4cc(O)ccc42)CSC3)C(=O)N1)C(=O)N[C@@H](CCCNC(=N)N)C(=O)N[C@@H](CCC(=O)O)C(=O)N[C@H](C(=O)N[C@@H](CO)C(=O)N[C@@H](CC(C)C)C(=O)N[C@@H](CC(C)C)C(=O)N[C@@H](CCCCN)C(=O)N[C@@H](CCC(=O)O)C(=O)N[C@@H](Cc1ccc(O)cc1)C(N)=O)[C@@H](C)CC [3Bf]	–	–	–	–	–	–	4.6 ± 2.4	–	–
CC[C@H](C)[C@H](NC(=O)[C@H](CC(N)=O)NC(=O)[C@H](CCCCN)NC(=O)[C@H](CSC)NC(=O)[C@H](CSC)NC(=O)[C@H](C)NC(=O)[C@H](C)NC(=O)[C@H](CC(=O)O)NC(=O)[C@@H](N)CSC)C(=O)N[C@@H](C)C(=O)N[C@@H](CO)C(=O)N[C@@H](CC(C)C)C(=O)N[C@@H](CC(C)C)C(=O)N[C@@H](CCCNC(=N)N)C(=O)N[C@H](C(=O)N[C@@H](CCC(N)=O)C(=O)N[C@@H](C)C(=O)N[C@@H](Cc1c[nH]cn1)C(=O)N[C@H](C(=O)N[C@@H](CCCNC(=N)N)C(=O)N[C@@H](CCCCN)C(=O)N[C@@H](CCCCN)C(=O)N[C@@H](CCSC)C(=O)N[C@H](C(=O)N[C@@H](Cc1ccc(O)cc1)C(N)=O)C(C)C)[C@@H](C)CC)C(C)C [4m] (H-C(Me)DAAC(Me)C(Me)KNIASLLRVQAHIRKKMVY-NH2; N-terminus and C-terminus assumed)	–	0.73	35	11	0.29	–	–	< 1	–
Ac-ASTAIREISLLKEY-NH2 [3l]	11	0.34	20	11	0.18	–	–	–	8.6 ± 2.8
Ac-KNIASLLRVQAHIRKKMVY-NH2 [4l]	14	0.69	35	14	0.27	–	–	< 1	–

Source: PMC11101637, “Bioinformatics leading to conveniently accessible, helix enforcing, bicyclic ASX motif mimics (BAMMs)” (Nature Communications, 2024)
